Measurements published in patent US10167262B2, “Herbicidal substituted 3-arylpyrazoles” (FMC CORPORATION, priority 2014, dated 2019).

Legend:
Type in all cases: in vivo
[1] = system: wheat (Triticum aestivum); assay: Test A pre-/postemergence greenhouse herbicide test, visual injury rating 0-100
Procedure, shortened: (§1)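 Greenhouse plants received compound either as directed soil spray at planting or as postemergence spray at the one- to two-leaf stage (2–10 cm). Evaluated after about 10 days by visual comparison with untreated controls.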

[2] = system: giant foxtail (Setaria faberii); assay: as above
Procedure, shortened: as §1

[3] = system: pigweed (Amaranthus retroflexus); assay: as above
Procedure, shortened: as §1

corn (Zea mays) = assay: as above
Procedure, shortened: as §1

[4] = system: large (Lg) crabgrass (Digitaria sanguinalis); assay: as above
Procedure, shortened: as §1

[5] = system: barnyardgrass (Echinochloa crus-galli); assay: as above
Procedure, shortened: as §1

[6] = system: morningglory (Ipomoea spp.); assay: as above
Procedure, shortened: as §1

[7] = system: velvetleaf (Abutilon theophrasti); assay: as above
Procedure, shortened: as §1

[8] = system: sedge, umbrella (small-flower umbrella sedge, Cyperus difformis); assay: Test B flooded paddy test, plant response rating 0-100; conditions: Flood, 250 g ai/ha; scale 0 to 100 (0 no effect, 100 complete control); 13 to 15 days
Procedure, shortened: (§2)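 Pots were flooded to 3 cm above the soil surface at treatment, compound applied directly to the paddy water, and that depth held throughout. Plants were kept in a greenhouse for 13 to 15 days, then visually rated against untreated controls.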

rice (Oryza sativa) = assay: as above; conditions: Flood, 250 g ai/ha; scale 0 to 100 (0 no effect, 100 complete control); 13 to 15 days
Procedure, shortened: as §2

[9] = system: barnyardgrass (Echinochloa crus-galli); assay: as above; conditions: Flood, 250 g ai/ha; scale 0 to 100 (0 no effect, 100 complete control); 13 to 15 days
Procedure, shortened: as §2

[10] = system: ducksalad (Heteranthera limosa); assay: as above; conditions: Flood, 250 g ai/ha; scale 0 to 100 (0 no effect, 100 complete control); 13 to 15 days
Procedure, shortened: as §2

Structure (SMILES) | Plant response rating, Sedge, Umbrella [8] | Plant response rating, Rice (rice (Oryza sativa)) | Plant response rating, Barnyardgrass [9] | Plant response rating, Ducksalad [10] | Plant response rating (0 to 100 scale), Wheat ([1]; Postemergence, 125 g ai/ha) | Plant response rating (0 to 100 scale), Wheat ([1]; Postemergence, 500 g ai/ha) | Wheat plant response rating (0 = no effect, 100 = complete control) ([1]; Preemergence, 125 g ai/ha) | Plant response rating (0 to 100 scale), Wheat ([1]; Preemergence, 500 g ai/ha) | Plant response rating (0 to 100 scale), Foxtail, Giant ([2]; Postemergence, 125 g ai/ha) | Plant response rating (0 to 100 scale), Foxtail, Giant ([2]; Postemergence, 500 g ai/ha) | Foxtail, Giant plant response rating (0 = no effect, 100 = complete control) ([2]; Preemergence, 125 g ai/ha) | Plant response rating (0 to 100 scale), Foxtail, Giant ([2]; Preemergence, 500 g ai/ha) | Plant response rating (0 to 100 scale), Pigweed ([3]; Postemergence, 125 g ai/ha) | Plant response rating (0 to 100 scale), Pigweed ([3]; Postemergence, 500 g ai/ha) | Pigweed plant response rating (0 = no effect, 100 = complete control) ([3]; Preemergence, 125 g ai/ha) | Plant response rating (0 to 100 scale), Pigweed ([3]; Preemergence, 500 g ai/ha) | Corn plant response rating (0 = no effect, 100 = complete control) (corn (Zea mays); Preemergence, 125 g ai/ha) | Plant response rating (0 to 100 scale), Corn (corn (Zea mays); Preemergence, 500 g ai/ha) | Plant response rating (0 to 100 scale), Crabgrass, Large ([4]; Postemergence, 125 g ai/ha) | Plant response rating (0 to 100 scale), Crabgrass, Large ([4]; Postemergence, 500 g ai/ha) | other results
Clc1cc(Cl)cc(-c2n[nH]cc2C(=NN2CCOCC2)c2ccccc2)c1 [Compound 55] | 0 | 0 | 0 | 0 |  |  |  |  |  |  |  |  |  |  |  |  |  |  |  |  | Plant response rating (0 to 100 scale), Wheat ([1]; Postemergence, 1000 g ai/ha): 0; Plant response rating (0 to 100 scale), Wheat ([1]; Preemergence, 1000 g ai/ha): 0; Plant response rating (0 to 100 scale), Foxtail, Giant ([2]; Postemergence, 1000 g ai/ha): 0; Plant response rating (0 to 100 scale), Foxtail, Giant ([2]; Preemergence, 1000 g ai/ha): 0; Plant response rating (0 to 100 scale), Pigweed ([3]; Postemergence, 1000 g ai/ha): 100; Plant response rating (0 to 100 scale), Pigweed ([3]; Preemergence, 1000 g ai/ha): 90; Plant response rating (0 to 100 scale), Corn (corn (Zea mays); Postemergence, 1000 g ai/ha): 0; Plant response rating (0 to 100 scale), Corn (corn (Zea mays); Preemergence, 1000 g ai/ha): 0; Plant response rating (0 to 100 scale), Crabgrass, Large ([4]; Postemergence, 1000 g ai/ha): 0; Plant response rating (0 to 100 scale), Crabgrass, Large ([4]; Preemergence, 1000 g ai/ha): 0; Plant response rating (0 to 100 scale), Barnyardgrass ([5]; Postemergence, 1000 g ai/ha): 0; Plant response rating (0 to 100 scale), Barnyardgrass ([5]; Preemergence, 1000 g ai/ha): 0; Plant response rating (0 to 100 scale), Morningglory ([6]; Postemergence, 1000 g ai/ha): 0; Plant response rating (0 to 100 scale), Morningglory ([6]; Preemergence, 1000 g ai/ha): 0; Plant response rating (0 to 100 scale), Velvetleaf ([7]; Postemergence, 1000 g ai/ha): 100; Plant response rating (0 to 100 scale), Velvetleaf ([7]; Preemergence, 1000 g ai/ha): 80
N#CCn1cc(C(=O)c2ccccc2)c(-c2cc(Cl)cc(Cl)c2)n1 [Compound 43] | 0 | 0 | 0 | 0 | 0 | 0 | 0 | 0 | 0 | 0 | 0 | 0 | 50 | 80 | 0 | 40 | 0 | 0 | 0 | 0 | Plant response rating (0 to 100 scale), Corn (corn (Zea mays); Postemergence, 125 g ai/ha): 0; Plant response rating (0 to 100 scale), Corn (corn (Zea mays); Postemergence, 500 g ai/ha): 0; Crabgrass, Large plant response rating (0 = no effect, 100 = complete control) ([4]; Preemergence, 125 g ai/ha): 0; Plant response rating (0 to 100 scale), Crabgrass, Large ([4]; Preemergence, 500 g ai/ha): 0; Plant response rating (0 to 100 scale), Barnyardgrass ([5]; Postemergence, 125 g ai/ha): 0; Plant response rating (0 to 100 scale), Barnyardgrass ([5]; Postemergence, 500 g ai/ha): 0; Barnyardgrass plant response rating (0 = no effect, 100 = complete control) ([5]; Preemergence, 125 g ai/ha): 0; Plant response rating (0 to 100 scale), Barnyardgrass ([5]; Preemergence, 500 g ai/ha): 0; Morningglory plant response rating (0 = no effect, 100 = complete control) ([6]; Preemergence, 125 g ai/ha): 0; Plant response rating (0 to 100 scale), Morningglory ([6]; Preemergence, 500 g ai/ha): 0; Plant response rating (0 to 100 scale), Velvetleaf ([7]; Postemergence, 125 g ai/ha): 20; Plant response rating (0 to 100 scale), Velvetleaf ([7]; Postemergence, 500 g ai/ha): 80; Velvetleaf plant response rating (0 = no effect, 100 = complete control) ([7]; Preemergence, 125 g ai/ha): 30; Plant response rating (0 to 100 scale), Velvetleaf ([7]; Preemergence, 500 g ai/ha): 30
ON=C(c1cccnc1)c1c[nH]nc1-c1cc(Cl)cc(Cl)c1 [Compound 5] | 0 | 0 | 0 | 0 | 0 | 0 | 0 | 0 | 0 | 0 | 0 | 0 | 0 | 0 | 0 | 20 | 0 | 0 | 0 | 0 | Crabgrass, Large plant response rating (0 = no effect, 100 = complete control) ([4]; Preemergence, 125 g ai/ha): 0; Plant response rating (0 to 100 scale), Crabgrass, Large ([4]; Preemergence, 500 g ai/ha): 0; Plant response rating (0 to 100 scale), Barnyardgrass ([5]; Postemergence, 125 g ai/ha): 0; Plant response rating (0 to 100 scale), Barnyardgrass ([5]; Postemergence, 500 g ai/ha): 0; Barnyardgrass plant response rating (0 = no effect, 100 = complete control) ([5]; Preemergence, 125 g ai/ha): 0; Plant response rating (0 to 100 scale), Barnyardgrass ([5]; Preemergence, 500 g ai/ha): 0; Plant response rating (0 to 100 scale), Morningglory ([6]; Postemergence, 125 g ai/ha): 0; Plant response rating (0 to 100 scale), Morningglory ([6]; Postemergence, 500 g ai/ha): 0; Morningglory plant response rating (0 = no effect, 100 = complete control) ([6]; Preemergence, 125 g ai/ha): 0; Plant response rating (0 to 100 scale), Morningglory ([6]; Preemergence, 500 g ai/ha): 0; Plant response rating (0 to 100 scale), Velvetleaf ([7]; Postemergence, 125 g ai/ha): 0; Plant response rating (0 to 100 scale), Velvetleaf ([7]; Postemergence, 500 g ai/ha): 0; Velvetleaf plant response rating (0 = no effect, 100 = complete control) ([7]; Preemergence, 125 g ai/ha): 0; Plant response rating (0 to 100 scale), Velvetleaf ([7]; Preemergence, 500 g ai/ha): 0
C#CCn1cc(C(=O)c2cccnc2)c(-c2cc(Cl)cc(Cl)c2)n1 [Compound 9] | 0 | 0 | 0 | 0 | 0 | 0 | 0 | 0 | 0 | 0 | 0 | 20 | 60 | 80 | 60 | 90 | 0 | 0 | 0 | 0 | Crabgrass, Large plant response rating (0 = no effect, 100 = complete control) ([4]; Preemergence, 125 g ai/ha): 0; Plant response rating (0 to 100 scale), Crabgrass, Large ([4]; Preemergence, 500 g ai/ha): 10; Plant response rating (0 to 100 scale), Barnyardgrass ([5]; Postemergence, 125 g ai/ha): 0; Plant response rating (0 to 100 scale), Barnyardgrass ([5]; Postemergence, 500 g ai/ha): 10; Barnyardgrass plant response rating (0 = no effect, 100 = complete control) ([5]; Preemergence, 125 g ai/ha): 0; Plant response rating (0 to 100 scale), Barnyardgrass ([5]; Preemergence, 500 g ai/ha): 0; Plant response rating (0 to 100 scale), Morningglory ([6]; Postemergence, 125 g ai/ha): 0; Plant response rating (0 to 100 scale), Morningglory ([6]; Postemergence, 500 g ai/ha): 0; Morningglory plant response rating (0 = no effect, 100 = complete control) ([6]; Preemergence, 125 g ai/ha): 0; Plant response rating (0 to 100 scale), Morningglory ([6]; Preemergence, 500 g ai/ha): 0; Plant response rating (0 to 100 scale), Velvetleaf ([7]; Postemergence, 125 g ai/ha): 50; Plant response rating (0 to 100 scale), Velvetleaf ([7]; Postemergence, 500 g ai/ha): 60; Velvetleaf plant response rating (0 = no effect, 100 = complete control) ([7]; Preemergence, 125 g ai/ha): 0; Plant response rating (0 to 100 scale), Velvetleaf ([7]; Preemergence, 500 g ai/ha): 80
